Source: patent US12116357B2, “Heteroaryl-triazole and heteroaryl-tetrazole compounds as pesticides” (Bayer Aktiengesellschaft, priority 2018, dated 2024)
Like-named read-outs stand apart in the source and are kept apart here.

Key:
[1] = test system: Myzus persicae; assay: Myzus persicae oral test; assay type: in vivo; settings: 120 h
Experimental: • Solvent: 100 parts by weight acetone
To produce a suitable preparation of active compound, 1 part by weight of active compound is mixed with the stated amount of solvent, and the concentrate is diluted with water to the desired concentration. 50 μl compound solution is filled in microtiter plates and 150 μl IPL41 insect medium (33%+15% sugar) is added to obtain a total volume of 200 μl per well. Afterwards the plates are sealed with parafilm through which a mixed population of the green peach aphid (Myzus persicae) can suck on the compound preparation.
After 5 days mortality in % is determined. 100% means all aphids have been killed and 0% means none of the aphids have been killed.

[2] = log P by HPLC on reversed phase columns (EEC directive 79/831 Annex V.A8); assay type: physicochemical; settings: LC-UV, neutral range; for chromatographic logP: reversed phase HPLC column
[3] = test system: Aedes aegypti strain MONHEIM; assay: Aedes aegypti test (surface treatment & contact assay); assay type: in vivo; settings: 24 hours after contact, read-out: efficacy (mortality); for mortality at 20 mg/m2: surface concentration 20 mg/m^2, 30 min exposure
Experimental: (§1) • Solvent: Aceton+2000 ppm rapeseed oil methyl ester (RME)
In order to produce a sufficient, active ingredient containing solution it is necessary to solve the test compound in the solvent-mix (acetone at 2 mg/ml/RME 2000 ppm). This solution is pipetted onto a glazed tile and after evaporation of the acetone, adult mosquitoes of the species Aedes aegypti strain MONHEIM are placed onto the dried surface. The exposure time is 30 minutes.
(§2) Mortality in percent (%) is determined 24 hours after contact of the insects to the treated surface. 100% mortality means that all tested insects are dead, whereas 0% means that no insect died.

[4] = test system: Spodoptera frugiperda; assay: Spodoptera frugiperda spray test; assay type: in vivo; settings: 168 h
Experimental: • Solvent: 78.0 parts by weight acetone • 1.5 parts by weight dimethylformamide • Emulsifier: alkylarylpolyglycol ether
(§3) To produce a suitable preparation of active compound, 1 part by weight of active compound is mixed with the stated amount of solvents and is diluted with water, containing an emulsifier concentration of 1000 ppm, to the desired concentration. Further test concentrations are prepared by dilution with emulsifier containing water.
Maize (Zea mays) leaf sections are sprayed with a preparation of the active ingredient of the desired concentration. Once dry, the leaf sections are infested with fall armyworm larvae (Spodoptera frugiperda).
After 7 days mortality in % is determined. 100% means all caterpillars have been killed and 0% means none of the caterpillars have been killed.

[5] = test system: Ctenocephalides felis; assay: Ctenocephalides felis oral test; assay type: in vivo; settings: 48 h, 100 ppm in cattle blood, after 2 days
Experimental: (§4) • Solvent: dimethyl sulfoxide
To produce a suitable preparation of active compound, 10 mg of active compound are dissolved in 0.5 ml solvent, and the concentrate is diluted with cattle blood to the desired concentration.
Approximately 20 adult unfed cat fleas (Ctenocephalides felis) are placed in flea chambers. The blood chamber, sealed with parafilm on the bottom, are filled with cattle blood supplied with compound solution and placed on the gauze covered top of the flea chamber, so that the fleas are able to suck the blood. The blood chamber is heated to 37° C. whereas the flea chamber is kept at room temperature.
After 2 days mortality in % is determined. 100% means all the fleas have been killed; 0% means none of the fleas have been killed.

[6] = test system: Phaedon cochleariae; assay: Phaedon cochleariae spray test; assay type: in vivo; settings: 168 h, after 7 days
Experimental: (§5) • Solvent: 78.0 parts by weight of acetone • 1.5 parts by weight of dimethylformamide • Emulsifier: alkylarylpolyglycol ether
as §3
Chinese cabbage (Brassica pekinensis) leaf disks are sprayed with a preparation of the active ingredient of the desired concentration. Once dry, the leaf disks are infested with mustard beetle larvae (Phaedon cochleariae).
After 7 days mortality in % is determined. 100% means all beetle larvae have been killed and 0% means none of the beetle larvae have been killed.

[7] = test system: Boophilus microplus; assay: Boophilus microplus injection test; assay type: in vivo; settings: Rhipicephalus microplus, 168 h, 20 μg/animal, egg deposition after 7 days, read-out: efficacy (infertile eggs)
Experimental: as §4
To produce a suitable preparation of active compound, 10 mg of active compound are dissolved in 0.5 ml solvent, and the concentrate is diluted with solvent to the desired concentration.
Five adult engorged female ticks (Boophilus microplus) are injected with 1 μl compound solution into the abdomen. The ticks are transferred into replica plates and incubated in a climate chamber.
After 7 days egg deposition of fertile eggs is monitored. Eggs where fertility is not visible are stored in a climate chamber till hatching after about 42 days. An efficacy of 100% means all eggs are infertile; 0% means all eggs are fertile.

[8] = test system: Nezara viridula; assay: Nezara viridula spray test; assay type: in vivo; settings: 96 h
Experimental: as §5
To produce a suitable preparation of active compound, 1 part by weight of active compound is mixed with the stated amount of solvent, and the concentrate is diluted with water, containing an emulsifier concentration of 1000 ppm, to the desired concentration. Further test concentrations are prepared by dilution with emulsifier containing water.
Barley plants (Hordeum vulgare) infested with larvae of the southern green stink bug (Nezara viridula) are sprayed with a test solution containing the desired concentration of the active ingredient.
After 4 days mortality in % is determined. 100% means all the stink bugs have been killed; 0% means none of the stink bugs have been killed.

[9] = test system: Musca domestica strain WHO-N; assay: Musca domestica test (surface treatment & contact assay); assay type: in vivo; settings: 24 hours after contact, read-out: efficacy (mortality)
Experimental: as §1
In order to produce a sufficient, active ingredient containing solution it is necessary to solve the test compound in the solvent-mix (acetone at 2 mg/ml/RME 2000 ppm). This solution is pipetted onto a glazed tile and after evaporation of the acetone, adult flies of the species Musca domestica strain WHO-N are placed onto the dried surface. The exposure time is 30 minutes.
as §2

[10] = test system: Nilaparvata lugens; assay: Nilaparvata lugens spray test; assay type: in vivo; settings: 96 h
Experimental: as §5, §3
Rice plants (Oryza sativa) are sprayed with a preparation of the active ingredient of the desired concentration and the plants are infested with the brown planthopper (Nilaparvata lugens).
After 4 days mortality in % is determined. 100% means all planthoppers have been killed and 0% means none of the planthoppers have been killed.

[11] = 0.001 molar ammonium acetate in water and acetonitrile (table footnote), read-out: LogP^[a]
[12] = surface concentration 4 mg/m^2, 30 min exposure

CC(c1ncnn1-c1ncccn1)N(CC1CCCO1)C(=O)c1cc(Cl)cc(C(F)(F)F)c1 (stereo not shown) [Example I-012]
mortality at 20 ppm [1]: 100%

CC(NCC1(c2ccccc2)CC1)c1ncnn1-c1ncccn1 (stereo not shown) [a-005]
chromatographic logP [2, 11]: 1.9

CC(NCc1ccc(C#N)cc1)c1ncnn1-c1ncccn1 (stereo not shown) [a-018]
chromatographic logP [2, 11]: 1.35

CC(NCC1CS(=O)(=O)C1)c1ncnn1-c1ncccn1 (stereo not shown) [a-008]
chromatographic logP [2, 11]: 0.51

CC(NCC1CSC1)c1ncnn1-c1ncccn1 (stereo not shown) [a-007]
chromatographic logP [2, 11]: 1.12

CC(NCC1(C)CC1)c1ncnn1-c1ncccn1 (stereo not shown) [a-010]
chromatographic logP [2, 11]: 1.73

CC(NCC1CCCCC1)c1ncnn1-c1ncccn1 (stereo not shown) [a-016]
chromatographic logP [2, 11]: 2.03

CONC(C)c1ncnn1-c1ncccn1 (stereo not shown) [a-024]
chromatographic logP [2, 11]: 0.42

CC(c1ncnn1-c1ncccn1)N(CC1(c2ccccc2)CC1)C(=O)c1cc(Cl)cc(C(F)(F)F)c1 (stereo not shown) [Example I-006]
mortality at 20 mg/m2 [3]: 90 to 100% | mortality at 500 g/ha [4]: 100% | mortality at 100 ppm [5]: 100% | mortality at 20 ppm [1]: 90% | mortality at 500 g/ha [6]: 100%

CC(NC1CSC1)c1ncnn1-c1ncccn1 (stereo not shown) [a-023]
chromatographic logP [2, 11]: 0.87

CC(NCC1OCCO1)c1ncnn1-c1ncccn1 (stereo not shown) [a-022]
chromatographic logP [2, 11]: 0.53

CC(c1ncnn1-c1ncccn1)N(CC1(C)CC1)C(=O)c1cc(Cl)cc(C(F)(F)F)c1 (stereo not shown) [Example I-009]
mortality at 500 g/ha [4]: 100% | mortality at 100 ppm [5]: 100% | mortality at 4 ppm [1]: 100% | mortality at 20 ppm [1]: 100% | pest or weed control at 0.02 mg [7]: 80% | mortality at 500 g/ha [8]: 100% | mortality at 500 g/ha [6]: 100%

CC(c1ncnn1-c1ncccn1)N(CC1CCOC1)C(=O)c1cc(Cl)cc(C(F)(F)F)c1 (stereo not shown) [Example I-015]
mortality at 500 g/ha [4]: 100% | mortality at 100 ppm [5]: 100% | mortality at 20 ppm [1]: 100% | pest or weed control at 0.02 mg [7]: 100% | mortality at 500 g/ha [6]: 100%

CSCCNC(C)c1ncnn1-c1ncccn1 (stereo not shown) [a-017]
chromatographic logP [2, 11]: 0.92

COc1ccc(CNC(C)c2ncnn2-c2ncccn2)cc1 (stereo not shown) [a-020]
chromatographic logP [2, 11]: 1.41

CC(NCC1CCOC1)c1ncnn1-c1ncccn1 (stereo not shown) [a-013]
chromatographic logP [2, 11]: 0.66

CC(NCCSC(F)(F)F)c1ncnn1-c1ccc(C#N)cn1 (stereo not shown) [a-026]
chromatographic logP [2, 11]: 2.51

CC(NCC1CCOCC1)c1ncnn1-c1ncccn1 (stereo not shown) [a-003]
chromatographic logP [2, 11]: 0.85

COc1ccc(CN(C(=O)c2cc(Cl)cc(C(F)(F)F)c2)C(C)c2ncnn2-c2ncccn2)cc1 (stereo not shown) [Example I-020]
mortality at 100 ppm [5]: 100% | mortality at 20 ppm [1]: 100% | pest or weed control at 0.02 mg [7]: 80% | mortality at 500 g/ha [8]: 100%

CC(c1ncnn1-c1ncccn1)N(Cc1ccc(C#N)cc1)C(=O)c1cc(Cl)cc(C(F)(F)F)c1 (stereo not shown) [Example I-018]
mortality at 4 mg/m2 [3, 12]: 80 to 100% | mortality at 20 mg/m2 [3]: 90 to 100% | mortality at 4 mg/m2 [9, 12]: 90 to 100% | mortality at 20 mg/m2 ([9]; surface concentration 20 mg/m^2, 30 min exposure): 90 to 100% | mortality at 500 g/ha [4]: 100% | mortality at 100 ppm [5]: 100% | mortality at 4 ppm [1]: 100% | mortality at 20 ppm [1]: 100% | pest or weed control at 0.02 mg [7]: 90% | mortality at 500 g/ha [8]: 100% | mortality at 500 g/ha [6]: 100%

CC(NCc1ccccn1)c1ncnn1-c1ncccn1 (stereo not shown) [a-001, N-(pyridin-2-ylmethyl)-1-[1-(pyrimidin-2-yl)-1H-1,2,4-triazol-5-yl]ethanamine]
chromatographic logP [2, 11]: 0.72 | chromatographic logP ([2]; 0.001 molar ammonium acetate in water and acetonitrile, read-out: log P^[b]): 0.77

CC(NCc1ccncc1)c1ncnn1-c1ncccn1 (stereo not shown) [a-014]
chromatographic logP [2, 11]: 0.53

CC(c1ncnn1-c1ncccn1)N(CC1CCOCC1)C(=O)c1cc(Cl)cc(C(F)(F)F)c1 (stereo not shown) [Example I-008]
mortality at 20 ppm [1]: 100% | mortality at 500 g/ha [6]: 100%

CC(NCC1CCCC1)c1ncnn1-c1ncccn1 (stereo not shown) [a-004]
chromatographic logP [2, 11]: 1.67

CC(NCc1cccnc1)c1ncnn1-c1ncccn1 (stereo not shown) [a-019]
chromatographic logP [2, 11]: 0.68

COCCNC(C)c1ncnn1-c1ncccn1 (stereo not shown) [a-006]
chromatographic logP [2, 11]: 0.52

CC(NC1COC1)c1ncnn1-c1ncccn1 (stereo not shown) [a-021]
chromatographic logP [2, 11]: 0.26

CC(NCC1CCOC1)c1ncnn1-c1ncccn1 (stereo not shown) [a-015]
LogP^[a] ([2]; 0.001 molar ammonium acetate in water and acetonitrile (table footnote)): 0.66

CC(NCC1CCCO1)c1ncnn1-c1ncccn1 (stereo not shown) [a-012]
chromatographic logP [2, 11]: 0.8

CC(NCc1ncccn1)c1ncnn1-c1ncccn1 (stereo not shown) [a-011]
chromatographic logP [2, 11]: 0.38

CC(c1ncnn1-c1ncccn1)N(Cc1cccnc1)C(=O)c1cc(Cl)cc(C(F)(F)F)c1 (stereo not shown) [Example I-019]
mortality at 20 mg/m2 [3]: 90 to 100% | mortality at 500 g/ha [4]: 100% | mortality at 100 ppm [5]: 90% | mortality at 4 ppm [1]: 100% | mortality at 20 ppm [1]: 100% | mortality at 500 g/ha [10]: 100% | pest or weed control at 0.02 mg [7]: 100% | mortality at 500 g/ha [8]: 100% | mortality at 500 g/ha [6]: 100%

CC(c1ncnn1-c1ncccn1)N(Cc1ccncc1)C(=O)c1cc(Cl)cc(C(F)(F)F)c1 (stereo not shown) [Example I-014]
mortality at 500 g/ha [4]: 100% | mortality at 100 ppm [5]: 100% | mortality at 4 ppm [1]: 100% | mortality at 20 ppm [1]: 100% | mortality at 500 g/ha [10]: 100% | pest or weed control at 0.02 mg [7]: 100% | mortality at 500 g/ha [8]: 100% | mortality at 500 g/ha [6]: 100%

CSCCNC(C)c1ncnn1-c1ccc(C#N)cn1 (stereo not shown) [a-025]
chromatographic logP [2, 11]: 1.65

CC(NCCc1ccc(F)cc1)c1ncnn1-c1ncccn1 (stereo not shown) [a-009]
chromatographic logP [2, 11]: 1.62

CC(NC1CC1)c1ncnn1-c1ncccn1 (stereo not shown) [a-002]
chromatographic logP [2, 11]: 0.75
